{"source": "paper PMC8539749", "about": "(Viruses, 2021)", "key": {"[1]": {"system": "SFTSV", "conditions": "cited from earlier work"}, "[2]": {"system": "SFTSV Gc glycoprotein", "conditions": "cited from earlier work"}, "[3]": {"system": "SFTSV", "type": "cell-based, SFTSV HB29 strain"}, "[4]": {"system": "SFTSV", "test": "microbe, parasite or virus in culture", "type": "cell-based, SFTSV HB29 strain", "conditions": "for IC50: Severe fever with thrombocytopenia syndrome virus"}, "[5]": {"system": "SFTSV", "type": "cell-based, SFTSV HB29 strain", "remark": "listed apart in the source"}, "[6]": {"system": "SFTSV", "type": "cell-based, SFTSV HB29 strain", "remark": "listed apart in the source"}}, "note": "“Also recorded” adds a separate entry of the source. Where two headings read alike, the source gives them in different places. Positions of bridges follow the written chain, without caps; N, C: chain ends. Residues, ends and D or L forms follow the SMILES beside them.", "data": [{"smiles": "Oc1c(Cl)cc(Cl)c(Cl)c1Cc1c(O)c(Cl)cc(Cl)c1Cl", "note": "[hexachlorophene]", "values": [{"measurement": "anti-SFTSV activity", "setting": "[1]", "value": "inhibited SFTSV replication at low micromolar concentrations"}, {"measurement": "likely target", "setting": "[2]", "value": "likely targets the SFTSV Gc glycoprotein"}]}, {"smiles": "N=C(N)NCCC[C@@H]1NC(=O)[C@@H](NC(=O)[C@@H](N)CCCCN)CCCCNC(=O)[C@H](CO)NC(=O)CNC(=O)[C@H](Cc2ccccc2)NC(=O)CNC1=O", "note": "[HKU-P1] (H-KKRGFGS; lactam 2-C)", "values": [{"measurement": "anti-SFTSV activity (in words)", "setting": "[3]", "value": "best anti-SFTSV activity; also recorded: displayed anti-SFTSV effects"}, {"measurement": "dose dependence of viral load reduction", "setting": "[3]", "value": "reduced SFTSV viral load in a dose-dependent manner"}, {"measurement": "reduction in SFTSV viral RNA load", "setting": "[3]", "value": "> 50", "unit": "%"}, {"measurement": "combination effect (in words)", "setting": "[4]", "value": "synergistic antiviral effects in vitro; also recorded: consistently synergistic with favipiravir at different concentrations"}, {"measurement": "viral load reduction, post-infection group", "setting": "[5]", "value": "no significant viral load reduction"}, {"measurement": "viral load reduction, pre-infection group", "setting": "[5]", "value": "no significant viral load reduction"}, {"measurement": "SFTSV-NP expression (immunofluorescence)", "setting": "[6]", "value": "markedly reduced"}]}, {"smiles": "NC(=O)c1nc(F)c[nH]c1=O", "note": "[Favipiravir]", "values": [{"measurement": "IC50", "setting": "[4]; Huh-7, read-out: Favipiravir IC50, alone", "value": "1.25 ± 0.101", "unit": "µg/mL"}, {"measurement": "IC50", "setting": "[4]; Huh-7, read-out: Favipiravir IC50, with HKU-P1 62.5 μg/mL", "value": "0.979 ± 0.194", "unit": "µg/mL"}, {"measurement": "IC50", "setting": "[4]; Huh-7, read-out: Favipiravir IC50, with HKU-P1 125 μg/mL", "value": "0.864 ± 0.132", "unit": "µg/mL"}, {"measurement": "IC50", "setting": "[4]; Huh-7, read-out: Favipiravir IC50, with HKU-P1 250 μg/mL", "value": "0.805 ± 0.105", "unit": "µg/mL"}, {"measurement": "anti-SFTSV activity in vitro and in vivo", "setting": "[1]", "value": "exhibit in vitro and in vivo activity against SFTSV"}, {"measurement": "broad-spectrum antiviral effects", "setting": "[1]", "value": "broad-spectrum antiviral effects against various RNA viruses, including SFTSV"}]}]}
